The results in this text go back to patent EP0146258A2, “Glycerol derivatives” (ONO PHARMACEUTICAL CO., LTD., priority 1983, dated 1985).

This series has as its system mice. Kind of series: Acute toxicity by intravenous administration. Type of series: in vivo. The conditions noted are these: intravenously administered to tail vein in five mice at the dose of 50 mg/kg. On the procedure: On the other hand, it was confirmed that the acute toxicity of all extent of the compounds of the present invention was more than 50 mg/kg by intravenous administration. Therefore, glycerol derivatives of the present invention may be considered to be sufficiently safe and suitable for medical use. For example, the mortality (dead/used) in glycerol derivatives of the present invention, i.e. compounds prepared in Example 1(h) and 11(a) was 0/5 and 0/5, respectively, when each glycerol compound was intravenously administered to tail vein in five mice at the dose of 50 mg/kg.

As to `CCCCCCCCCCCCCCCCOCC(COCCCCCCC[N+]1(C)CCCC1)NC(C)=O` (centres unmarked) [11(a)], the “mortality (dead/used)” value is 0/5. To `CCCCCCCCCCCCCCCCOCC(COCCCCCCC[n+]1ccsc1)OCC` (centres unmarked) [Example 1(h)] belongs 0/5.
